According to US20120270929A1, “MODULATION OF TTC39 EXPRESSION TO INCREASE HDL” (ISIS Pharmaceuticals, Inc., priority 2009, published 2012):
Oligonucleotides are written 5' to 3', each unit as a sugar letter and its base; * is a phosphorothioate linkage, no mark a phosphodiester; rarer units and linkages stand in square brackets, end groups in braces. Plain capitals give the bases only. e = 2'-O-(2-methoxyethyl) (MOE); [5mC] = 5-methylcytosine; d = 2'-deoxy (DNA)

system: murine TTC39C mRNA; experiment: Dose-dependent antisense inhibition of murine TTC39C in mouse primary hepatocytes; assay type: cell-based; conditions: 500.0 nM, electroporation, ~16 h
Description: Thirty antisense oligonucleotides were selected from the study described in Example 8 and further tested at various doses in mouse primary hepatocytes. Cells were plated at a density of 30,000 cells per well and transfected using electroporation with 500 nM, 1,000 nM, 2,000 nM, 4,000 nM, and 8,000 nM concentrations of antisense oligonucleotide, as specified in Table 30. After a treatment period of approximately 16 hours, RNA was isolated from the cells and TTC39C mRNA levels were measured by quantitative real-time PCR. Murine primer probe set RTS3266 was used to measure mRNA levels. TTC39C mRNA levels were adjusted according to total RNA content, as measured by RIBOGREEN®. Results are presented as percent inhibition of TTC39C, relative to untreated control cells.

| Substance | percent inhibition of TTC39C mRNA [%] |
| --- | --- |
| ISIS 474654: 5-10-5 MOE gapmer antisense oligonucleotide targeting murine TTC39C (antisense eT*e[5mC]*eA*eG*e[5mC]*dT*dA*d[5mC]*dA*dG*dA*dA*d[5mC]*dG*d[5mC]*eA*eG*eG*eG*eT) | 11 |

same assay, conditions: 1000.0 nM, electroporation, ~16 h

| Substance | percent inhibition of TTC39C mRNA [%] |
| --- | --- |
| ISIS 474654: 5-10-5 MOE gapmer antisense oligonucleotide targeting murine TTC39C (antisense eT*e[5mC]*eA*eG*e[5mC]*dT*dA*d[5mC]*dA*dG*dA*dA*d[5mC]*dG*d[5mC]*eA*eG*eG*eG*eT) | 14 |

same assay, conditions: 2000.0 nM, electroporation, ~16 h

| Substance | percent inhibition of TTC39C mRNA [%] |
| --- | --- |
| ISIS 474654: 5-10-5 MOE gapmer antisense oligonucleotide targeting murine TTC39C (antisense eT*e[5mC]*eA*eG*e[5mC]*dT*dA*d[5mC]*dA*dG*dA*dA*d[5mC]*dG*d[5mC]*eA*eG*eG*eG*eT) | 38 |

same assay, conditions: 4000.0 nM, electroporation, ~16 h

| Substance | percent inhibition of TTC39C mRNA [%] |
| --- | --- |
| ISIS 474654: 5-10-5 MOE gapmer antisense oligonucleotide targeting murine TTC39C (antisense eT*e[5mC]*eA*eG*e[5mC]*dT*dA*d[5mC]*dA*dG*dA*dA*d[5mC]*dG*d[5mC]*eA*eG*eG*eG*eT) | 60 |

same assay, conditions: 8000.0 nM, electroporation, ~16 h

| Substance | percent inhibition of TTC39C mRNA [%] |
| --- | --- |
| ISIS 474654: 5-10-5 MOE gapmer antisense oligonucleotide targeting murine TTC39C (antisense eT*e[5mC]*eA*eG*e[5mC]*dT*dA*d[5mC]*dA*dG*dA*dA*d[5mC]*dG*d[5mC]*eA*eG*eG*eG*eT) | 74 |

same assay, conditions: mouse primary hepatocytes, electroporation, ~16 h

| Substance | IC50 [µM] |
| --- | --- |
| ISIS 474654: 5-10-5 MOE gapmer antisense oligonucleotide targeting murine TTC39C (antisense eT*e[5mC]*eA*eG*e[5mC]*dT*dA*d[5mC]*dA*dG*dA*dA*d[5mC]*dG*d[5mC]*eA*eG*eG*eG*eT) | 3.1 |

system: murine TTC39B mRNA; experiment: Antisense inhibition of murine TTC39B in mouse primary hepatocytes, single dose; assay type: cell-based; conditions: 100 nM, cytofectin, ~24 h, vs untreated control; gapmers targeted to SEQ ID NO: 6
Description: Antisense oligonucleotides targeted to a TTC39B nucleic acid were tested for their effects on TTC39B mRNA in vitro. Cultured mouse primary hepatocytes at a density of 10,000 cells per well were transfected using cytofectin reagent with 100 nM antisense oligonucleotide. After a treatment period of approximately 24 hours, RNA was isolated from the cells and TTC39B mRNA levels were measured by quantitative real-time PCR. TTC39B mRNA levels were adjusted according to total RNA content, as measured by RIBOGREEN®. Results are presented as percent inhibition of TTC39B, relative to untreated control cells.
The chimeric antisense oligonucleotides in Tables 1 and 2 were designed as 5-10-5 MOE gapmers. The gapmers are 20 nucleotides in length, wherein the central gap segment is comprised of 10 2′-deoxynucleotides and is flanked on both sides (in the 5′ and 3′ directions) by wings comprising 5 nucleotides each. Each nucleotide in the 5′ wing segment and each nucleotide in the 3′ wing segment has a 2′-MOE modification. The internucleoside linkages throughout each gapmer are phosphorothioate (P═S) linkages. All cytosine residues throughout each gapmer are 5-methylcytosines. “Target start site” indicates the 5′-most nucleotide to which the gapmer is targeted. “Target stop site” indicates the 3′-most nucleotide to which the gapmer is targeted. Each gapmer listed in Table 1 is targeted to SEQ ID NO: 6 (GENBANK Accession No. NM_027238.2) and each gapmer listed in Table 2 is targeted to SEQ ID NO: 10 (the complement of GENBANK Accession No. NT—039260.7 truncated at nucleotides 22491001 to 22601000), SEQ ID NO: 11 (GENBANK Accession No. BY244623.1), SEQ ID NO: 12 (GENBANK Accession No. BY260936), SEQ ID NO: 13 (GENBANK Accession No. BM935568.1) or SEQ ID NO: 14 (GENBANK Accession No. BY728780.1).

| Substance | % inhibition of murine TTC39B mRNA [%] |
| --- | --- |
| AGCATCAAATTAAAGGCCCC (antisense eA*eG*e[5mC]*eA*eT*d[5mC]*dA*dA*dA*dT*dT*dA*dA*dA*dG*eG*e[5mC]*e[5mC]*e[5mC]*e[5mC]) [ISIS 447113] | 59 |
| CTTTATTGTACCTGCCAGTC (antisense e[5mC]*eT*eT*eT*eA*dT*dT*dG*dT*dA*d[5mC]*d[5mC]*dT*dG*d[5mC]*e[5mC]*eA*eG*eT*e[5mC]) [ISIS 447134] | 53 |
| CCAGACAGACACTCAGACCA (antisense e[5mC]*e[5mC]*eA*eG*eA*d[5mC]*dA*dG*dA*d[5mC]*dA*d[5mC]*dT*d[5mC]*dA*eG*eA*e[5mC]*e[5mC]*eA) [ISIS 447149] | 48 |
| TAGTAATACGCCTGCATCCA (antisense eT*eA*eG*eT*eA*dA*dT*dA*d[5mC]*dG*d[5mC]*d[5mC]*dT*dG*d[5mC]*eA*eT*e[5mC]*e[5mC]*eA) [ISIS 447121] | 53 |
| TCTGGAAGCATGCTCAAAAT (antisense eT*e[5mC]*eT*eG*eG*dA*dA*dG*d[5mC]*dA*dT*dG*d[5mC]*dT*d[5mC]*eA*eA*eA*eA*eT) [ISIS 447124] | 60 |
| CCGCACACCCACAGGGAACT (antisense e[5mC]*e[5mC]*eG*e[5mC]*eA*d[5mC]*dA*d[5mC]*d[5mC]*d[5mC]*dA*d[5mC]*dA*dG*dG*eG*eA*eA*e[5mC]*eT) [ISIS 447099] | 56 |
| AGATACAAGTCCCTTCTGCC (antisense eA*eG*eA*eT*eA*d[5mC]*dA*dA*dG*dT*d[5mC]*d[5mC]*d[5mC]*dT*dT*e[5mC]*eT*eG*e[5mC]*e[5mC]) [ISIS 447137] | 50 |
| GACTTTGAGATGGCACACAA (antisense eG*eA*e[5mC]*eT*eT*dT*dG*dA*dG*dA*dT*dG*dG*d[5mC]*dA*e[5mC]*eA*e[5mC]*eA*eA) [ISIS 447152] | 60 |
| TCCAGAGATGAAGAGCTGCT (antisense eT*e[5mC]*e[5mC]*eA*eG*dA*dG*dA*dT*dG*dA*dA*dG*dA*dG*e[5mC]*eT*eG*e[5mC]*eT) [ISIS 447131] | 60 |
| AGGACCTTGATGGCCTTGTC (antisense eA*eG*eG*eA*e[5mC]*d[5mC]*dT*dT*dG*dA*dT*dG*dG*d[5mC]*d[5mC]*eT*eT*eG*eT*e[5mC]) [ISIS 447130] | 44 |
| GTTTTTCACTTTCCACAACG (antisense eG*eT*eT*eT*eT*dT*d[5mC]*dA*d[5mC]*dT*dT*dT*d[5mC]*d[5mC]*dA*e[5mC]*eA*eA*e[5mC]*eG) [ISIS 447128] | 56 |
| CGTGTCATTTATTAAATAAC (antisense e[5mC]*eG*eT*eG*eT*d[5mC]*dA*dT*dT*dT*dA*dT*dT*dA*dA*eA*eT*eA*eA*e[5mC]) [ISIS 447154] | 22 |
| TCATATTTTCATCCTGCACA (antisense eT*e[5mC]*eA*eT*eA*dT*dT*dT*dT*d[5mC]*dA*dT*d[5mC]*d[5mC]*dT*eG*e[5mC]*eA*e[5mC]*eA) [ISIS 447109] | 41 |
| TCCAAGGCATCTTCAAAGAT (antisense eT*e[5mC]*e[5mC]*eA*eA*dG*dG*d[5mC]*dA*dT*d[5mC]*dT*dT*d[5mC]*dA*eA*eA*eG*eA*eT) [ISIS 447101] | 36 |
| GACAGCCTGCAACACCACAA (antisense eG*eA*e[5mC]*eA*eG*d[5mC]*d[5mC]*dT*dG*d[5mC]*dA*dA*d[5mC]*dA*d[5mC]*e[5mC]*eA*e[5mC]*eA*eA) [ISIS 447105] | 52 |
| CAGTAAAGTCTTGATTCTGC (antisense e[5mC]*eA*eG*eT*eA*dA*dA*dG*dT*d[5mC]*dT*dT*dG*dA*dT*eT*e[5mC]*eT*eG*e[5mC]) [ISIS 447126] | 58 |
| TCTTCACTCAGTTGTTCCAG (antisense eT*e[5mC]*eT*eT*e[5mC]*dA*d[5mC]*dT*d[5mC]*dA*dG*dT*dT*dG*dT*eT*e[5mC]*e[5mC]*eA*eG) [ISIS 447108] | 49 |
| AGTATGAGGGAGCCATTTGG (antisense eA*eG*eT*eA*eT*dG*dA*dG*dG*dG*dA*dG*d[5mC]*d[5mC]*dA*eT*eT*eT*eG*eG) [ISIS 447117] | 47 |
| GGCTCTGGGTTCAGCCCAGC (antisense eG*eG*e[5mC]*eT*e[5mC]*dT*dG*dG*dG*dT*dT*d[5mC]*dA*dG*d[5mC]*e[5mC]*e[5mC]*eA*eG*e[5mC]) [ISIS 447098] | 44 |
| GTTCCGGATCAGTCCGTGGA (antisense eG*eT*eT*e[5mC]*e[5mC]*dG*dG*dA*dT*d[5mC]*dA*dG*dT*d[5mC]*d[5mC]*eG*eT*eG*eG*eA) [ISIS 447132] | 58 |
| ATCCACATTAATTCCCAGTA (antisense eA*eT*e[5mC]*e[5mC]*eA*d[5mC]*dA*dT*dT*dA*dA*dT*dT*d[5mC]*d[5mC]*e[5mC]*eA*eG*eT*eA) [ISIS 447120] | 65 |
| GTCCGATGGAGATCTAGAGA (antisense eG*eT*e[5mC]*e[5mC]*eG*dA*dT*dG*dG*dA*dG*dA*dT*d[5mC]*dT*eA*eG*eA*eG*eA) [ISIS 447102] | 84 |

same assay, conditions: 100 nM, cytofectin, ~24 h, vs untreated control; gapmers targeted to SEQ ID NO: 10-14

| Substance | % inhibition of murine TTC39B mRNA [%] |
| --- | --- |
| CGGAGATCAGTTTCTTCACT (antisense e[5mC]*eG*eG*eA*eG*dA*dT*d[5mC]*dA*dG*dT*dT*dT*d[5mC]*dT*eT*e[5mC]*eA*e[5mC]*eT) [ISIS 447165] | 50 |
| GCCCATGCACGGGTGGAGGA (antisense eG*e[5mC]*e[5mC]*e[5mC]*eA*dT*dG*d[5mC]*dA*d[5mC]*dG*dG*dG*dT*dG*eG*eA*eG*eG*eA) [ISIS 447156] | 16 |
| CTGATGAACTTGATTTAGCC (antisense e[5mC]*eT*eG*eA*eT*dG*dA*dA*d[5mC]*dT*dT*dG*dA*dT*dT*eT*eA*eG*e[5mC]*e[5mC]) [ISIS 447166] | 0 |
| GTTTCTTGAGCCTATAAGTC (eG*eT*eT*eT*e[5mC]*dT*dT*dG*dA*dG*d[5mC]*d[5mC]*dT*dA*dT*eA*eA*eG*eT*e[5mC]; antisense) [ISIS 447172] | 54 |
| GCTTACCTTGGACCATTTAC (eG*e[5mC]*eT*eT*eA*d[5mC]*d[5mC]*dT*dT*dG*dG*dA*d[5mC]*d[5mC]*dA*eT*eT*eT*eA*e[5mC]; antisense) [ISIS 447173] | 59 |
| AAAGAGGAGTCCTTCCTTAA (antisense eA*eA*eA*eG*eA*dG*dG*dA*dG*dT*d[5mC]*d[5mC]*dT*dT*d[5mC]*e[5mC]*eT*eT*eA*eA) [ISIS 447160] | 63 |
| AGCCTTGTTCACTGGGAAGA (antisense eA*eG*e[5mC]*e[5mC]*eT*dT*dG*dT*dT*d[5mC]*dA*d[5mC]*dT*dG*dG*eG*eA*eA*eG*eA) [ISIS 447162] | 59 |
| ACTCAGTCATACTTTTGGCA (antisense eA*e[5mC]*eT*e[5mC]*eA*dG*dT*d[5mC]*dA*dT*dA*d[5mC]*dT*dT*dT*eT*eG*eG*e[5mC]*eA) [ISIS 447168] | 35 |
| GGAGATGTGTGTACGGCAGC (antisense eG*eG*eA*eG*eA*dT*dG*dT*dG*dT*dG*dT*dA*d[5mC]*dG*eG*e[5mC]*eA*eG*e[5mC]) [ISIS 447161] | 14 |
| CCTTACCAAATTAAAGGCCC (antisense e[5mC]*e[5mC]*eT*eT*eA*d[5mC]*d[5mC]*dA*dA*dA*dT*dT*dA*dA*dA*eG*eG*e[5mC]*e[5mC]*e[5mC]) [ISIS 447171] | 23 |
